These results are taken from patent US6949648B2, “Condensed pyrazole derivatives, process for producing the same and use thereof” (Takeda Pharmaceutical Company Limited, priority 2000, dated 2005).

Structures can show the parent of a compound that is named as a salt. Bounds are passed on as bounds.

As for `Cc1nn(-c2ccccn2)c2ncc(C(=O)NCc3ccccc3)c(O)c12` [Example 1-9, N-Benzyl-4-hydroxy-3-methyl-1-(2-pyridinyl)-1H-pyrazolo[3,4-b]pyridine-5-carboxamide], the melting point is greater than 300 °C. In turn, `Cc1nn(-c2ccccn2)c2ncc(C(=O)Nc3cccc(F)c3)c(O)c12` [Example 1-13, N-(3-Fluorophenyl)-4-hydroxy-3-methyl-1-(2-pyridinyl)-1H-pyrazolo[3,4-b]pyridine-5-carboxamide] gave a melting point greater than 300 °C. The result for `Cc1nn(-c2ccccn2)c2nc3cc(Cl)c(Cl)cc3c(Cl)c12` [Example 2-75, 4,6,7-Trichloro-3-methyl-1-(2-pyridinyl)-1H-pyrazolo[3,4-b]quinoline] reads 213 to 214 °C; that for `Cc1cccnc1-n1nc(C)c2c(=O)c3c(C)cccc3[nH]c21` [Example 2-125, 3,5-Dimethyl-1-(3-methyl-2-pyridinyl)-1,9-dihydro-4H-pyrazolo[3,4-b]quinolin-4-one], 195 to 197 °C; that for `COc1cc2nc3c(c(C)nn3-c3ccccn3)c(N)c2cc1OC.Cl`, 277 to 280 °C. With `Cc1nc2c(c(C)nn2-c2ccccn2)c(O)c1Cc1ccccc1` [Example 1-20, 5-Benzyl-3,6-dimethyl-1-(2-pyridinyl)-1H-pyrazolo[3,4-b]pyridin-4-ol] the figure was 181 to 182 °C. Compound `Cc1nn(-c2ncccn2)c2nc3ccccc3c(N)c12` (as salt: hydrochloride) [Example 1-65, 3-Methyl-1-(2-pyrimidinyl)-1H-pyrazolo[3,4-b]quinolin-4-ylamine hydrochloride] yielded a melting point of 287 to 290 °C. In the case of `Cc1nn(-c2ccccn2)c2[nH]c3cc([N+](=O)[O-])ccc3c(=O)c12` [Example 2-58, 3-Methyl-7-nitro-1-(2-pyridinyl)-1,9-dihydro-4H-pyrazolo[3,4-b]quinolin-4-one], the melting point is greater than 300 °C. Take `Cc1nn(-c2cccnc2)c2nc3cc(F)c(F)cc3c(Cl)c12` [Example 2-202, 4-Chloro-6,7-difluoro-3-methyl-1-(3-pyridinyl)-1H-pyrazolo[3,4-b]quinoline]: the melting point was in the range of 192 to 194 °C.

For the compound `O=c1c2cc(F)c(F)cc2[nH]c2c1cnn2-c1ccccn1` [Example 2-199, 6,7-Difluoro-1-(2-pyridinyl)-1,9-dihydro-4H-pyrazolo[3,4-b]quinolin-4-one], the melting point is greater than 300 °C. The result for `Cc1nn(-c2ccncc2)c2[nH]c3cc(F)c(F)cc3c(=O)c12.Cl.Cl` reads 237 to 240 °C; that for `COc1c2ccccc2nc2c1c(C)nn2-c1cccnc1` [Example 2-139, 4-Methoxy-3-methyl-1-(3-pyridinyl)-1H-pyrazolo[3,4-b]quinoline], 126 to 128 °C. Take `Cc1nn(-c2ccccn2)c2[nH]c3ccccc3c(=O)c12` [Example 1-39, 3-Methyl-1-(2-pyridinyl)-1,9-dihydro-4H-pyrazolo[3,4-b]quinolin-4-one]: the melting point was 199 to 200 °C. As to `Cc1nn(-c2ccccn2)c2nc3cc(F)c(Cl)cc3c(Cl)c12` [Example 2-98, 4,6-Dichloro-7-fluoro-3-methyl-1-(2-pyridinyl)-1H-pyrazolo[3,4-b]quinoline], the melting point was 211 °C. Consider `Cc1nn(-c2ccccn2)c2nc3cc([N+](=O)[O-])ccc3c(Cl)c12` [Example 2-57, 4-Chloro-3-methyl-7-nitro-1-(2-pyridinyl)-1H-pyrazolo[3,4-b]quinoline], for which the melting point fell in the range of 226 to 227 °C.

Compound `Cc1nn(Cc2ccccn2)c2nc3ccccc3c(N)c12` (as salt: salt) [Example 2-187, 3-Methyl-1-(2-pyridinylmethyl)-1H-pyrazolo[3,4-b]quinolin-4-ylamine] came in with a melting point of 262 to 265 °C.

As for `Clc1c2ccccc2nc2c1c(CBr)nn2-c1ccccn1` [Example 2-168, 3-Bromomethyl-4-chloro-1-(2-pyridinyl)-1H-pyrazolo[3,4-b]quinoline], the melting point was in the range of 203 to 205 °C. The result for `Cc1nn(-c2ccccn2)c2nc3cc(F)c(F)cc3c(Cl)c12` [Example 2-90, 4-Chloro-6,7-difluoro-3-methyl-1-(2-pyridinyl)-1H-pyrazolo[3,4-b]quinoline] reads 175 to 176 °C; that for `Cc1nn(-c2ncccn2)c2nc3ccccc3c(N)c12.Cl`, 287 to 290 °C. The result for `Cc1ccc(-n2nc(C)c3c(N)c4ccccc4nc32)nc1` [Example 2-116, 3-Methyl-1-(5-methyl-2-pyridinyl)-1H-pyrazolo[3,4-b]quinolin-4-ylamine] reads 229 to 232 °C. With `CCOC(=O)c1cnc2c(c(C)nn2-c2ccccn2)c1N` [Example 1-31, Ethyl 4-amino-3-methyl-1-(2-pyridinyl)-1H-pyrazolo[3,4-b]pyridine-5-carboxylate], the melting point was 147 to 149 °C. Compound `COc1ccc2nc3c(c(C)nn3-c3ccccn3)c(N)c2c1` [Example 2-42, 6-Methoxy-3-methyl-1-(2-pyridinyl)-1H-pyrazolo[3,4-b]quinolin-4-ylamine] had a melting point of 267 to 268 °C. Compound `Cc1cccc2[nH]c3c(c(C)nn3-c3ccccn3)c(=O)c12` [Example 2-31, 3,5-Dimethyl-1-(2-pyridinyl)-1,9-dihydro-4H-pyrazolo[3,4-b]quinolin-4-one] returned a melting point of 183 to 186 °C. `FC(F)(F)c1nn(-c2ccccn2)c2nc3ccccc3c(Cl)c12` [Example 2-166, 4-Chloro-1-(2-pyridinyl)-3-trifluoromethyl-1H-pyrazolo[3,4-b]quinoline] came in with a melting point of 166 to 168 °C. `Cc1nn(-c2ccccn2)c2nc3ncccc3c(Cl)c12` [Example 2-196, 4-Chloro-3-methyl-1-(2-pyridinyl)-1H-pyrazolo[3,4-b][1, 8]naphthyridine] showed a melting point of 204 to 205 °C. On to `Cc1cc(O)nc2c1c(C)nn2-c1ccccn1` [Example 1-23, 3,4-Dimethyl-1-(2-pyridinyl)-1H-pyrazolo[3,4-b]pyridin-6-ol], for which the melting point fell in the range of 254 to 255 °C. `Cc1nn(-c2ccccn2)c2nc3ccccc3c(SC(C)C)c12` [Example 2-25, 4-(Isopropylsulfanyl)-3-methyl-1-(2-pyridinyl)-1H-pyrazolo[3,4-b]quinoline]: the melting point fell in the range of 113 to 114 °C. `CCOc1cccc(-n2nc(C)c3c(N)c4cccc(C)c4nc32)n1` [Example 2-129, 3,8-Dimethyl-1-(6-ethoxy-2-pyridinyl)-1H-pyrazolo[3,4-b]quinolin-4-ylamine] displayed a melting point of 184 to 187 °C.

Take `O=C(O)c1nn(-c2ccccn2)c2[nH]c3ccccc3c(=O)c12` [Example 2-181, 4-Oxo-1-(2-pyridinyl)-4,9-dihydro-1H-pyrazolo[3,4-b]quinoline-3-carboxylic acid]: the melting point was 306 to 309 °C.

In the case of `Cc1nn(-c2ccccn2)c2[nH]c3ccc(F)c(F)c3c(=O)c12` [Example 2-89, 5,6-Difluoro-3-methyl-1-(2-pyridinyl)-1,9-dihydro-4H-pyrazolo[3,4-b]quinolin-4-one], the melting point is 300 to 303 °C. `Oc1ccnc2c1cnn2-c1ccccn1` [Example 1-7, 1-(2-Pyridinyl)-1H-pyrazolo[3,4-b]pyridin-4-ol] came in with a melting point of 192 to 194 °C. With `Cc1nn(-c2ccccn2)c2ncc(C(=O)Nc3ccccc3)c(O)c12` [Example 1-11, 4-Hydroxy-3-methyl-N-phenyl-1-(2-pyridinyl)-1H-pyrazolo[3,4-b]pyridine-5-carboxamide] the figure was greater than 300 °C; with `COC(=O)c1ccc2nc3c(c(C)nn3-c3ccccn3)c(Cl)c2c1` [Example 2-63, Methyl 4-chloro-3-methyl-1-(2-pyridinyl)-1H-pyrazolo[3,4-b]quinoline-6-carboxylate], 199 to 200 °C; with `Cc1nn(-c2ccncc2)c2nc3ccccc3c(Cl)c12` [Example 2-140, 4-Chloro-3-methyl-1-(4-pyridinyl)-1H-pyrazolo[3,4-b]quinoline], 165 to 168 °C. Turning to `Cc1nn(Cc2ccccn2)c2nc3ccccc3c(Cl)c12` [Example 2-186, 4-Chloro-3-methyl-1-(2-pyridinylmethyl)-1H-pyrazolo[3,4-b]quinoline], the melting point lay in the range of 113 to 115 °C. Compound `Cc1nn(-c2ccccn2)c2[nH]c3c(Cl)cc(Cl)cc3c(=O)c12` [Example 2-77, 6,8-Dichloro-3-methyl-1-(2-pyridinyl)-1,9-dihydro-4H-pyrazolo[3,4-b]quinolin-4-one] had a melting point of 288 to 289 °C. In turn, `O=c1c2cc(F)ccc2[nH]c2c1cnn2-c1ccccn1` (as salt: salt) [Example 2-165, 6-Fluoro-1-(2-pyridinyl)-1,9-dihydro-4H-pyrazolo[3,4-b]quinolin-4-one] returned a melting point of 263 to 266 °C. With `Cc1cccc2c(=O)c3c(C)nn(-c4ccccn4)c3[nH]c12` [Example 2-38, 3,8-Dimethyl-1-(2-pyridinyl)-1,9-dihydro-4H-pyrazolo[3,4-b]quinolin-4-one] the figure was 241 to 243 °C. Take `Cc1nn(-c2cccnc2)c2nc3ccccc3c(Cl)c12` [Example 2-136, 4-Chloro-3-methyl-1-(3-pyridinyl)-1H-pyrazolo[3,4-b]quinoline]: the melting point was 144 to 145 °C.

`COc1c2ccccc2nc2c1c(C)nn2Cc1ccccn1` [Example 2-190, 4-Methoxy-3-methyl-1-(2-pyridinylmethyl)-1H-pyrazolo[3,4-b]quinoline] showed a melting point of 111 to 113 °C. Turning to `Cc1nn(-c2ccccn2)c2[nH]c3ccc(C(=O)O)cc3c(=O)c12` [Example 2-65, 3-Methyl-4-oxo-1-(2-pyridinyl)-4,9-dihydro-1H-pyrazolo[3,4-b]quinoline-6-carboxylic acid], the melting point is greater than 300 °C. Turning to `Cc1nn(-c2ccccn2)c2[nH]c3ccc([S+](C)[O-])cc3c(=O)c12` (stereo not shown) [Example 2-51, 3-Methyl-6-(methylsulfinyl)-1-(2-pyridinyl)-1,9-dihydro-4H-pyrazolo[3,4-b]quinolin-4-one], the melting point fell in the range of 268 to 269 °C.

In turn, `CCCSc1c2ccccc2nc2c1c(C)nn2-c1ccccn1` [Example 2-27, 3-Methyl-4-(propylsulfanyl)-1-(2-pyridinyl)-1H-pyrazolo[3,4-b]quinoline] gave a melting point of 91 to 93 °C.

A word on the melting point: it is the temperature of the solid-liquid transition.
